Article PMC3072459 (Journal of medicinal chemistry, 2011)
Blank lines part the entries; values can stand above or below the compound they belong to.

Assays:
rat nNOS = rat nNOS (Rattus norvegicus, UniProt P29476); assay: NOS inhibition, hemoglobin; format: biochemical
[1] = biological target: nNOS in 293T cells overexpressing nNOS (293T/nNOS cells) (Rattus norvegicus, UniProt P29476); assay: Cell-based nNOS inhibition assay; conditions: for activity in the cell-based assay (in words): A23187 (5 μM), 8 h
[2] = rodent in vivo studies; cited from earlier work

SMILES: Cc1cc(C)nc(NCc2ccc3cc(CNc4cc(C)cc(C)n4)ccc3c2)c1 [3a, N,N'-(Naphthalene-2,6-diylbis(methylene))bis(4,6-dimethylpyridin-2-amine)]
- binding / inhibition of nNOS (in words) (rat nNOS): poor binding

SMILES: Cc1cc(N)nc(CCc2ccc3cc(CCc4cc(C)cc(N)n4)ccc3c2)c1 [3b, 6,6'-(2,2'-(Naphthalene-2,6-diyl)bis(ethane-2,1-diyl))bis(4-methylpyridin-2-amine)]
- binding / inhibition of nNOS (in words) (rat nNOS): sub-micromolar binding affinity

SMILES: Cc1cc(N)nc(CCc2ccc3ccc(CCc4cc(C)cc(N)n4)cc3c2)c1 [3c, 6,6'-(2,2'-(Naphthalene-2,7-diyl)bis(ethane-2,1-diyl))bis(4-methylpyridin-2-amine)]
- binding / inhibition of nNOS (in words) (rat nNOS): sub-micromolar binding affinity

SMILES: Cc1cc(N)nc(C[C@H]2CNC[C@H]2NCCNCCc2cccc(F)c2)c1 [compound 1]
- ability to penetrate the blood brain barrier (BBB) [2]: poor ability to penetrate the blood brain barrier

SMILES: Cc1cc(N)nc(C[C@@H]2CNC[C@@H]2NCCNCCc2cccc(F)c2)c1 [compound 2]
- ability to penetrate the blood brain barrier (BBB) [2]: poor ability to penetrate the blood brain barrier

The next lines start with the values.

- binding / inhibition of nNOS (in words) (rat nNOS): poor inhibitor
SMILES: Cc1cc(N)nc(CCc2ccc3ccc(CCc4cc(C)nc(N)c4)cc3c2)c1 [3d, 4-(2-(7-(2-(6-Amino-4-methylpyridin-2-yl)ethyl)naphthalen-2-yl)ethyl)-6-methylpyridin-2-amine]

- activity in the cell-based assay (in words) [1]: almost no activity
SMILES: Cc1cc(N)nc(CCc2cccc(CCc3cc(C)cc(N)n3)c2)c1 [3g, 6,6'-(2,2'-(1,3-Phenylene)bis(ethane-2,1-diyl))bis(4-methylpyridin-2-amine)]

- activity in the cell-based assay (in words) [1]: almost no activity
SMILES: Cc1cc(N)nc(CCc2cccc(CCc3cc(C)nc(N)c3)c2)c1 [3h, 4-(3-(2-(6-Amino-4-methylpyridin-2-yl)ethyl)phenethyl)-6-methylpyridin-2-amine]

- binding / inhibition of nNOS (in words) (rat nNOS): binds rather poorly
SMILES: Cc1cc(CCc2cccc(CCc3cc(C)nc(N)c3)c2)cc(N)n1 [3i, 4,4'-(2,2'-(1,3-Phenylene)bis(ethane-2,1-diyl))bis(6-methylpyridin-2-amine)]

- membrane penetration ability (in words, from cell-based assay) [1]: good membrane penetration ability
SMILES: Cc1cc(N)nc(CCc2cncc(CCc3cc(C)cc(N)n3)c2)c1 [3j, 6,6'-(2,2'-(Pyridine-3,5-diyl)bis(ethane-2,1-diyl))bis(4-methylpyridin-2-amine)]

- membrane penetration ability (in words, from cell-based assay) [1]: good membrane penetration ability
SMILES: Cc1cc(N)nc(CCc2cncc(CCc3cc(C)nc(N)c3)c2)c1 [3k, 4-(2-(5-(2-(6-Amino-4-methylpyridin-2-yl)ethyl)pyridin-3-yl)ethyl)-6-methylpyridin-2-amine]
